Data on two compounds can be found in paper PMC10641921, “Optimization of mTOR Inhibitors Using Property-Based Drug Design and Free–Wilson Analysis for Improved In Vivo Efficacy” (ACS Medicinal Chemistry Letters, 2023).

One may read the IC50 as the concentration that inhibits the measured activity by half. A word on the inhibition: it is the share of the control response that was lost under treatment. Read a high inhibition as a response far below the control.

Data set [1] deals with pAKT-S473 in PC-3 cells (TORC2). Nature of the data set: Cellular p-AKT (ser473) AlphaScreen assay in PC-3 cells (TORC2 activity). The data set is classed as cell-based, human. Particulars: for IC50: read-out: pAKT S473 Cell IC50. On the procedure:
The target product profile for 1 and the next-generation analogs described here was for a dual inhibitor against both TORC1 and TORC2.
(§1) FRAP1 (mTOR) recombinant protein and GFP-4E-BP1 were purchased from Invitrogen (Carlsbad, CA, US).
(§2) The kinase activity assay was conducted in 50 mM Hepes buffer containing 10 mM MgCl2, 0.01% Brij, 0.2 mM EDTA, 2 mM DTT and 1% DMSO (after compound addition) at pH 7.3.
(§3) The IC50 value for each compound was determined in the presence of compound (various concentrations, from 0 to 10 μM) and a fixed amount of ATP (50 μM, final concentration), substrate GFP-4E-BP1 (400 nM, final concentration). The enzymatic reaction was initiated by adding FRAP1 (mTOR) (2 nM, final concentration). The assay was conducted at room temperature (~22 °C). After 30 min, the enzymatic reaction was stopped using Tb-anti-p4E-BP1 (2 nM final concentration, Invitrogen) and EDTA (20 mM final concentration, Sigma) in TR-FRET dilution buffer provided by Invitrogen. All the reagents were dispensed using a Multidrop Combi reagent dispenser (ThermoFisher Scientific, Waltham, […]
The release of product was detected using a BMG PHERAstar plate reader (BMG LABTECH, Ortenberg, Germany) and the Lantha Screen module (337 nm excitation wavelength) and measuring the ratio of fluorescence 520/490 nm (emission wavelengths). Experimental data was fitted using Eq. (1):
Vi and Vo are the rates of the enzyme activity in the presence and in the absence of inhibitor; n is the Hill coefficient; I is the free inhibitor concentration; IC 50 is a measure of potency that is equivalent to a […]
Cellular p-AKT (ser473) assay in PC-3 cells
PC-3 cells (PTEN deleted, human prostate cell line) were maintained in F12K media with 10% heat-inactivated fetal bovine serum (FBS) in 37 °C, 5% CO2 incubator. This method describes the procedure […]
from Perkin Elmer (catalog# TGRAS500). On day 1, 50,000 PC-3 cells were plated in 160 µL complete […]
Plates were placed in 37 °C, 5%
CO2 incubator for 24 h. On day 2, all media was removed and replaced with 160 µL starvation media which is F12K media (no FBS) and 0.1% BSA. Plates are placed in 37 °C, 5% CO2 incubator for 16 h. On day 3, compounds were both solubilized and serially diluted in DMSO and added to a secondary plate containing starvation media. 40 µL of compound/starvation media were added to the 160 µL in cell plate and plates were placed back in the incubator for 1 h. Cells were then activated by adding 22 µL FBS (for a final concentration of 10% FBS) for 10 min in the incubator. Media was removed from the well and cells were lysed in 100 µL SureFire kit lysis buffer and then shake n for 15 min at 900 rpm. AlphaScreen […]
assay was performed according to manufacturer’s instructions. 4 µL of lysate was added to PerkinElmer 96-well Proxiplate then 5 µL of Reaction Buffer plus Activation Buffer. Plates were shaken for 2 h at room temperature. 2 µL of Donor Beads in Dilution Buffer were added to the plate and the plate was shaken for 2 h at room temperature. The plate was read using BMG Labtech PHERAstar using AlphaScreen settings. Each analog was run in duplicate wells and a single IC50 value was calculated in […]
Background: Bead proximity is the source of the signal in Alpha formats.

Data set [2] deals with human ether-a-go-go (hERG) (Homo sapiens, UniProt Q12809). Nature of the data set: hERG patch clamp. Type of data set: cell-based.
Sequence of human ether-a-go-go (hERG) (Q12809 whole entry): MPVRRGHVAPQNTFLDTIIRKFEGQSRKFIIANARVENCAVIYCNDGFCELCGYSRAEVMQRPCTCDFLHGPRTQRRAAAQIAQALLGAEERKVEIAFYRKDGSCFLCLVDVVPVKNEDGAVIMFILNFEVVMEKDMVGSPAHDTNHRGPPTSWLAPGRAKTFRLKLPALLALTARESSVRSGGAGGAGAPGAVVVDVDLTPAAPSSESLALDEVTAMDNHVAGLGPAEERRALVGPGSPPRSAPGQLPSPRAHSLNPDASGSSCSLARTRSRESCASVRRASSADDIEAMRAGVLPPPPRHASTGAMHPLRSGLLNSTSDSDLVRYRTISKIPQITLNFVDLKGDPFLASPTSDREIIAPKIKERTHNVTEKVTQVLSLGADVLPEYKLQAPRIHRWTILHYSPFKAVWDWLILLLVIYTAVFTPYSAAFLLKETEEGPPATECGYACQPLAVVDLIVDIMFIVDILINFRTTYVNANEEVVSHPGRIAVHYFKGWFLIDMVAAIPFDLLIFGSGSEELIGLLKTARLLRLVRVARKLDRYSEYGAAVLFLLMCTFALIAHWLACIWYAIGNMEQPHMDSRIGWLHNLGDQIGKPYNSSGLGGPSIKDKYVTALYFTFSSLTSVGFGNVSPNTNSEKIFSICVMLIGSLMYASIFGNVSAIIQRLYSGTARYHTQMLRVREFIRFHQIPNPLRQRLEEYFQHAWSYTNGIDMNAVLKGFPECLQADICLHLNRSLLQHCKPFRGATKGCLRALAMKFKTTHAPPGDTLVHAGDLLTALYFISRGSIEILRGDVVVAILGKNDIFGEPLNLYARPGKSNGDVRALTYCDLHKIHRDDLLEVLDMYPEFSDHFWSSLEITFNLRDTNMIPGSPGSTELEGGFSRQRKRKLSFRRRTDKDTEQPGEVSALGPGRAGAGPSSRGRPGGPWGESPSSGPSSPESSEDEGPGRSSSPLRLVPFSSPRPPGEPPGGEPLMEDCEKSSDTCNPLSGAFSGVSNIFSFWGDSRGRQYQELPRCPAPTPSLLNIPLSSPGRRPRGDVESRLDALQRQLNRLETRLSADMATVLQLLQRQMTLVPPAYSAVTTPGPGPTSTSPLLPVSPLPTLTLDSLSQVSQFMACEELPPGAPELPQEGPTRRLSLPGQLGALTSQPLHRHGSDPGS
Data set [3] is described as follows: Ames test with and without S9. Type of data set: cell-based. Particulars: with and without S9 activation.
In a further data set the test system is PI3Kβ. Description: PI3Kβ selectivity. Type of data set: biochemical.
A further data set concerns PI3Kδ. Nature of the data set: PI3Kδ selectivity. The data set is classed as biochemical.
In another data set the test system is PI3Kγ. Description: PI3Kγ selectivity. Type of data set: biochemical.
In data set [4] the test system is interleukin-1 receptor-associated kinase 4 (IRAK1). Description: Kinase panel (Invitrogen) at 1 μM, IRAK1. Type of data set: biochemical.
The target of data set [5] is T1, cyclin-dependent kinase 9 (CDK9) (Homo sapiens, UniProt P50750).
T1 construct: purchased Invitrogen
T1 sequence (P50750 whole entry): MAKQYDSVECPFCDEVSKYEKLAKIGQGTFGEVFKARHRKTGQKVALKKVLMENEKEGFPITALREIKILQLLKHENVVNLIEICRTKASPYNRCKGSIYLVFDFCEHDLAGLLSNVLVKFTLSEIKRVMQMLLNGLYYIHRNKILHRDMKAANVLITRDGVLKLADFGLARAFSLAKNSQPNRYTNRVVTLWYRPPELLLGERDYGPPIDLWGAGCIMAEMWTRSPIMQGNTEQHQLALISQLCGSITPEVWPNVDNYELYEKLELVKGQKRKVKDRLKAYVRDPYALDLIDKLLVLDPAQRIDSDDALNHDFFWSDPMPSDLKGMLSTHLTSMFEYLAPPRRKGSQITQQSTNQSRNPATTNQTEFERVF
T1 sequence (O60563 whole entry partner): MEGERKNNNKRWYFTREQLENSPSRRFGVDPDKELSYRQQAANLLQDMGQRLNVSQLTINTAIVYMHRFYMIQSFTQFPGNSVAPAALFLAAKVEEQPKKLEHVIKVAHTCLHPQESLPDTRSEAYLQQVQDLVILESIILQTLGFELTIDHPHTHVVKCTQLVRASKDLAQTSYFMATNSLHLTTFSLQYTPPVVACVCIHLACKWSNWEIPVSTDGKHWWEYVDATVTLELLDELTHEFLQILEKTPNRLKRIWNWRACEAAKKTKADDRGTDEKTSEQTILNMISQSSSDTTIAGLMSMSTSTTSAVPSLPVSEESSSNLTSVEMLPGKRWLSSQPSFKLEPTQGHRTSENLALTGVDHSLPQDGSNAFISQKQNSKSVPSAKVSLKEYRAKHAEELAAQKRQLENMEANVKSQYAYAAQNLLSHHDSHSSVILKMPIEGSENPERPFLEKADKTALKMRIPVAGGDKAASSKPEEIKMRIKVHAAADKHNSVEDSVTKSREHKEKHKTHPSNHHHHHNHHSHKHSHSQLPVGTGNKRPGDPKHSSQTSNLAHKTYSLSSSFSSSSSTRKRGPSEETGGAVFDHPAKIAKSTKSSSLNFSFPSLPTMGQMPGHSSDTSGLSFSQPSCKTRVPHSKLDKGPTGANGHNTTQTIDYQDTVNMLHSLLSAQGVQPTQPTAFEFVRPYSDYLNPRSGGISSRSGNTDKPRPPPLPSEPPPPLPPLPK
Description: Kinase panel (Invitrogen) at 1 μM, CDK9. The data set is classed as biochemical.

The target in the next data set is T2, DNA-PK (Homo sapiens, UniProt P78527).
T2 construct: purchased Invitrogen
Nature of the data set: DNA-PK inhibition (Invitrogen). The data set is classed as biochemical.

The test system of another data set is panel of 298 kinases. Description: Panel of 298 kinases (Invitrogen). The data set is classed as biochemical. Particulars: 298 kinases tested at 1 μM.
In data set [6] the target is T3, FRAP1 (mTOR) recombinant protein (Homo sapiens, UniProt P42345).
T3 construct: purchased Invitrogen (Carlsbad, CA, US)
T3 sequence (P42345 1360-2549 limits assumed): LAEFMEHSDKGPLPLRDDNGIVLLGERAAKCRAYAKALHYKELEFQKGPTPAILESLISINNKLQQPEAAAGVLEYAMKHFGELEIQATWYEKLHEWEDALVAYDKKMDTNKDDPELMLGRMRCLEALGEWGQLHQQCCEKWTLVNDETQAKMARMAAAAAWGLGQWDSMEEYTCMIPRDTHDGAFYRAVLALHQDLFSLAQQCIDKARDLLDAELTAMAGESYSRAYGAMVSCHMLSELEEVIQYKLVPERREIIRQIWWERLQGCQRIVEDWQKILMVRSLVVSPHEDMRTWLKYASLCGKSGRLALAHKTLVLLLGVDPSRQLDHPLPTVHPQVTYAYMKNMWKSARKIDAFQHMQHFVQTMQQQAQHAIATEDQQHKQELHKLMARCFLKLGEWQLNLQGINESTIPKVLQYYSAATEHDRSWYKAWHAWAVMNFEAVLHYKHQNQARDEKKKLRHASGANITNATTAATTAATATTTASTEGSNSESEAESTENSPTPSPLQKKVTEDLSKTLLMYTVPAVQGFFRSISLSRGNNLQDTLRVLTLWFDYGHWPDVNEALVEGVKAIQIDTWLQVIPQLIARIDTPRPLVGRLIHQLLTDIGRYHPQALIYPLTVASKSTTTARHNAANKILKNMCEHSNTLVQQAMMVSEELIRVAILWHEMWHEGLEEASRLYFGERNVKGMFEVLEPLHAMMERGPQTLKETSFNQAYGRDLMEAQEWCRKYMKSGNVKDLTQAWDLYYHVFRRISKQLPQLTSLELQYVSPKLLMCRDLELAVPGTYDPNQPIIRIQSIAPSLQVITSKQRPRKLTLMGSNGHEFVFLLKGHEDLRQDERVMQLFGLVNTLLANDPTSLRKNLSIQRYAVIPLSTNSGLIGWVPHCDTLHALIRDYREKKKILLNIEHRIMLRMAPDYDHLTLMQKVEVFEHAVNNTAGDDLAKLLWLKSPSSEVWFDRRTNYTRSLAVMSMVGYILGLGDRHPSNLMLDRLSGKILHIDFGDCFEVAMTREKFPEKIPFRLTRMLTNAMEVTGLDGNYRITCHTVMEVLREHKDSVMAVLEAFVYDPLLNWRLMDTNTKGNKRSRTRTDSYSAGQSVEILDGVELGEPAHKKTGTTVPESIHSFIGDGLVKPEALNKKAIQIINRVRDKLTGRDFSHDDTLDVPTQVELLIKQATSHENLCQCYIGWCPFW
Description: mTOR kinase inhibition assay (TR-FRET, GFP-4E-BP1). The data set is classed as biochemical. Particulars: enzyme. The protocol:
as §1, §2, §3
The release of product was detected using a BMG PHERAstar plate reader (BMG LABTECH, Ortenberg, Germany) and the Lantha Screen module (337 nm excitation wavelength) and measuring the ratio of fluorescence 520/490 nm (emission wavelengths). Experimental data was fitted using Eq. (1): […]
In general terms: Time-resolved FRET reads energy transfer from a long-lived donor to a nearby acceptor.

A further data set relates to mouse xenograft models. Description: Mouse xenograft models (earlier efficacy of lead 1). The data set is classed as in vivo. Conditions: 10 and 30 mpk.
Setting [7] is: Homo sapiens, PC-3, PC-3 cell line.
Setting [8] is: Homo sapiens, p-AKT S473, PC-3 cells, mean of N runs, read-out: Cell pEC50 (converted).

Molecules are shown by their SMILES. Where two headings read alike, the source gives them in different places.

For the compound `C[C@@]12COCCN1c1nc(-c3cccc4[nH]ccc34)ncc1N([C@H]1CC[C@H](O)CC1)C2=O` [14c], the IC50 is 10 nM in data set [1] (setting [7]), 13 nM in data set [1] (PC-3 cell line) and above 40000 nM in data set [2]. Besides, the EC50 in [1] (setting [8]) is 12.6 nM. Further, the Ames test result in [3] is reported as “negative”. In addition, the “Selectivity against PI3Kβ” value in the data set with PI3Kβ is reported as 180 ×. The “Selectivity against PI3Kδ” value with PI3Kδ stood at 6 ×. Also, the “Selectivity against PI3Kγ” value with PI3Kγ was 180 ×. This compound returned an IRAK1 inhibition in data set [4] of 22%. Also, the inhibition at 1 µM in data set [5] turned out to be 34%; against DNA-PK, 13%. Further, in the data set with panel of 298 kinases, the Kinase panel selectivity entry is given as “only two had inhibition >20%”.

Consider `CC(F)(F)CN1C(=O)[C@]2(C)COCCN2c2nc(-c3ccc(NC(=O)NC4CC4)cc3)ncc21` [compound 1], for which the IC50 was 70 nM in data set [1] (setting [7]) and 12 nM in data set [6]. Besides, the EC50 in data set [1] (Homo sapiens, PC-3, Figure 1 profile, read-out: cell EC50) is 70 nM; in data set [1] (setting [8]), 70.8 nM. The In vivo efficacy result in the data set on mouse xenograft models is “significant in vivo efficacy”.
